Measured values from EP0197664A2, “2-Aminopyrimidinone derivatives” (SMITH KLINE & FRENCH LABORATORIES LIMITED, priority 1985, dated 1986).

How the values were obtained:
right ventricle strips = assay: Cardiac stimulant activity in vitro (force of contraction of electrically stimulated ventricular strips); format: cell-based, Guinea pigs; settings: Cavia porcellus, read-out: EC50 (50% increase in the force of contraction of the ventricular strips); guinea pig right ventricular strips, 1.0 Hz stimulation, Krebs Henseleit solution at 37°C, cumulative concentration response
Description: The compounds of formula (I) and their pharmaceutically acceptable salts are tested for cardiac stimulant activity following a procedure based on that of S.C. […] Guinea pigs (500-700 g) of either sex are sacrificed and the hearts are quickly removed and transferred to a dissecting dish containing oxygenated bathing fluid. While in the bathing medium, the right ventricle is cut into two strips. The strips are each suspended in a 50 ml bath containing Krebs Henseleit solution at 37°C, and the bath is bubbled with 95% oxygen and 5% carbon dioxide. The ventricular strips are electrically stimulated at a frequency of 1.0 Hz, at double the threshold voltage. A resting tension of 1.0 g is applied to the strips and the tension is kept constant by readjustment during an equilibration period of 60 minutes. The bathing fluid is frequently changed during this period. When a steady base line is obtained, a compound under test is added to the bathing fluid and a cumulative concentration response curve is plotted.

anaesthetised cats = assay: Cardiac stimulant activity in vivo (anaesthetised cats, left ventricular dp/dt max); settings: Felis catus, read-out: ED50 (dose to increase left ventricular dp/dt max by 50%); anaesthetised cats pretreated with pempidine and propranolol, intravenous
Text: The dose to increase left ventricular dp/dt max by 50% is given as the EDso.

Compound	EC50 (right ventricle strips) [µM]	ED50 (anaesthetised cats) [µmol/kg]
Nc1cc(-c2ccncc2)c[nH]c1=O [Amrinone, reference compound]	15	5.6
CC1CC(=O)NN=C1c1ccc(Nc2nc(=O)cc[nH]2)cc1 (centres unmarked) [Example 1, 6-[4-(1,4-Dihydro-4-oxo-2-pyrimidinylamino)phenyl]-5-methyl-4,5-dihydro-3(2H)-pyridazinone]		0.06
Cc1c[nH]c(Nc2ccc(C3=NNC(=O)CC3C)cc2)nc1=O (centres unmarked) [Example 3, 6-[4-(1,4-Dihydro-5-methyl-4-oxo-2-pyrimidinylamino)phenyl]-5-methyl-4,5-dihydro-3-(2H)-pyridazinone]		3.03
CC1CC(=O)NN=C1c1ccc(Nc2nc(=O)c3ccccc3[nH]2)cc1 (centres unmarked) [Example 4, 6-[4-(1,4-Dihydro-4-oxo-2-quinazolinyiamino)-phenyl]-5-methyl-4,5-dihydro-3(2H)-pyridazinone]		0.41
